In this assay the target is EGFR (UniProt P00533).

Converted amounts (≈) assume the structure as drawn.

Sequence of EGFR (P00533 whole entry, looked up): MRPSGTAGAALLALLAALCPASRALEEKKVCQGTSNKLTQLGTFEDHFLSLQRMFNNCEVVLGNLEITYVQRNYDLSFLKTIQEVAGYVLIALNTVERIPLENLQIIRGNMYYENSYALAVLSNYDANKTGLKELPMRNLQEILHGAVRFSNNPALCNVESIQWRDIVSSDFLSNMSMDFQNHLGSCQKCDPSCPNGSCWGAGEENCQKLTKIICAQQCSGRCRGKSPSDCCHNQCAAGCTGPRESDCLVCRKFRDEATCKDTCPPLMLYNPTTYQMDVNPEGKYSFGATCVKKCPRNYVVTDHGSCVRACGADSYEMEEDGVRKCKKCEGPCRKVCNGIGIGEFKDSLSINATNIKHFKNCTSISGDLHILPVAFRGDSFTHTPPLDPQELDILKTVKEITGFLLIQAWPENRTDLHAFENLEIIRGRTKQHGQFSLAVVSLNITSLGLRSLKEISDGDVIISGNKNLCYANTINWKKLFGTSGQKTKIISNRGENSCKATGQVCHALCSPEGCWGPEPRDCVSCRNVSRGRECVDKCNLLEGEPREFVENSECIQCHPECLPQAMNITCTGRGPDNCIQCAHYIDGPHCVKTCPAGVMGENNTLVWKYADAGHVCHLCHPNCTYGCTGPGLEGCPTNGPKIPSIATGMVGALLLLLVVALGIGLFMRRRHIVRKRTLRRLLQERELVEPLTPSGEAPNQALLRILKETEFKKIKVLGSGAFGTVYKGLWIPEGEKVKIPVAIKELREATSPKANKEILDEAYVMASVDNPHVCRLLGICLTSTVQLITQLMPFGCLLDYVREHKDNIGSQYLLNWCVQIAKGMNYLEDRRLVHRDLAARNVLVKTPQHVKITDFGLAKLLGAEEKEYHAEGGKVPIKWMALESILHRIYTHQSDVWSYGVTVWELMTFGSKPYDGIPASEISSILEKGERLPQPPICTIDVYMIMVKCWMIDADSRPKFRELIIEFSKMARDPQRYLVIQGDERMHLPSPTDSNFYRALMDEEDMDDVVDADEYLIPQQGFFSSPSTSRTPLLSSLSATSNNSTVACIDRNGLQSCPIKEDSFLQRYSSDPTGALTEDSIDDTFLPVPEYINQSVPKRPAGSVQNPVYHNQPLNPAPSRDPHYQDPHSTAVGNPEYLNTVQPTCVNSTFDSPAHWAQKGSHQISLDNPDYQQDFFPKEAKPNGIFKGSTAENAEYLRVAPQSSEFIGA

As for `COc1cc(Nc2ncnc(N(c3ccc(Cl)cc3)c3nc4ccccc4[nH]3)n2)cc(OC)c1OC`, the IC50 (in general, the concentration at which inhibition is half-maximal) is below 0.4 µg/mL.

`COc1cc(Nc2ncnc(N3CCc4ccccc43)n2)cc(OC)c1OC`: the IC50 was above 4.5 µg/mL. `COc1ccc(Nc2ncnc(Nc3cc(OC)c(OC)c(OC)c3)n2)cc1OC`: the IC50 is 3.5 to 4.5 µg/mL (≈ 8.47 to 10.9 µM).

In turn, `CCc1ccccc1Nc1ncnc(-n2cccc2)n1` gave an IC50 above 4.5 µg/mL. Regarding `COc1cccc(NC(=O)Nc2ncnc(Nc3cc(OC)c(OC)c(OC)c3)n2)c1`, the IC50 is above 4.5 µg/mL.

The compound `COc1ccc(Nc2nc3ccccc3n2-c2ncnc(Nc3cc(OC)c(OC)c(OC)c3)n2)cc1` yielded an IC50 above 4.5 µg/mL. With `N#Cc1ccc(Nc2ncnc(-c3cccs3)n2)cc1` the figure was above 4.5 µg/mL. In turn, `COc1cc(Nc2ncnc(-n3c(Nc4cccc(C(=O)O)c4)nc4ccccc43)n2)cc(OC)c1OC` yielded an IC50 of 3.5 to 4.5 µg/mL (≈ 6.82 to 8.76 µM).

Take `COc1cc(Br)ccc1Nc1nc2ccccc2n1-c1ncnc(Nc2cc(OC)c(OC)c(OC)c2)n1`: the IC50 is above 4.5 µg/mL. Then `COc1cccc(Nc2ncnc(-c3ccccc3)n2)c1`, with above 4.5 µg/mL. With `CCc1cccc(Nc2ncnc(-n3c(N)nc4ccccc43)n2)c1` the figure was 0.4 to 2.4 µg/mL (≈ 1.21 to 7.24 µM). Then `COc1cc(Nc2ncnc(Nc3ccc4c(cnn4C)c3)n2)cc(OC)c1OC`, with 0.4 to 2.4 µg/mL (≈ 0.982 to 5.89 µM); and `COc1cc(Nc2ncnc(-n3c(N[C@H](CO)c4ccccc4)nc4ccccc43)n2)cc(OC)c1OC`, with above 4.5 µg/mL. `COc1cc(Nc2ncnc(Nc3ccccn3)n2)cc(OC)c1OC` yielded an IC50 above 4.5 µg/mL.

In turn, `NC(=O)c1cccc(Nc2ncnc(-c3ccccc3)n2)c1` came in with an IC50 above 4.5 µg/mL.

`COc1ccc(Nc2ncnc(NCCC#N)n2)cc1OC`: the 50% inhibitory concentration (IC50) is above 4.5 µg/mL. `CN(c1cccc(Cl)c1)c1ncnc(Nc2ccc(S(C)(=O)=O)cc2)n1` gave an IC50 below 0.4 µg/mL. Then `CN(c1cccc(Cl)c1)c1ncnc(Nc2ccc3nn(C)cc3c2)n1`, with below 0.4 µg/mL; and `O=c1[nH]c2ccccc2n1-c1ncnc(Nc2ccc(OC(F)(F)F)cc2)n1`, with above 4.5 µg/mL. Turning to `COc1cc(Nc2ncnc(NC(=O)Nc3ccccc3)n2)cc(OC)c1OC`, the IC50 was above 4.5 µg/mL. Then `COc1cc(Nc2ncnc(Oc3ccc(OCc4ccccc4)cc3)n2)cc(OC)c1OC`, with above 4.5 µg/mL; and `COc1cc(Nc2ncnc(Nc3ccc(F)c(Cl)c3)n2)cc(OC)c1OC`, with below 0.4 µg/mL; and `c1csc(-c2ncnc(Nc3ccc(N4CCOCC4)cc3)n2)c1`, with above 4.5 µg/mL. Then `CN(c1cccc(Cl)c1)c1ncnc(Nc2ccccc2)n1`, with below 0.4 µg/mL; and `COc1cc(Nc2ncnc(-n3c(=O)[nH]c4ccccc43)n2)cc(OC)c1OC`, with 3.5 to 4.5 µg/mL (≈ 8.87 to 11.4 µM). The compound `N#Cc1cccc(Nc2ncnc(-n3c(=O)[nH]c4ccccc43)n2)c1` yielded an IC50 above 4.5 µg/mL. In turn, `O=c1[nH]c2ccccc2n1-c1ncnc(Nc2cccc(OC(F)(F)F)c2)n1` gave a 50% inhibitory concentration (IC50) above 4.5 µg/mL.

As for `COc1cc(Nc2ncnc(-n3c(NC(C)c4ccc(F)cc4)nc4ccccc43)n2)cc(OC)c1OC` (centres undefined), the IC50 is above 4.5 µg/mL. Then `O=C(O)Cc1cccc(Nc2ncnc(-n3c(NCc4ccccn4)nc4ccccc43)n2)c1`, with above 4.5 µg/mL; and `CNS(=O)(=O)Cc1ccc(Nc2ncnc(Nc3ccc4c(cnn4Cc4ccccc4)c3)n2)cc1`, with 0.4 to 2.4 µg/mL (≈ 0.799 to 4.79 µM). Then `COc1cc(Nc2ncnc(-n3c(NCc4cccc([N+](=O)[O-])c4)nc4ccccc43)n2)cc(OC)c1OC`, with above 4.5 µg/mL.

For `COc1cc(Nc2ncnc(Nc3ccc4cn[nH]c4c3)n2)cc(OC)c1OC`, the IC50 is 0.4 to 2.4 µg/mL (≈ 1.02 to 6.1 µM). `COc1cccc(Nc2ncnc(N(C)c3cccc(Cl)c3)n2)c1` returned an IC50 below 0.4 µg/mL. Then `COc1cc(Nc2nc3ccccc3n2-c2ncnc(Nc3cc(OC)c(OC)c(OC)c3)n2)cc(OC)c1`, with above 4.5 µg/mL; and `Nc1nc2ccccc2n1-c1ncnc(Nc2cccc(CC(=O)NCc3ccccn3)c2)n1`, with above 4.5 µg/mL; and `COc1cc(Nc2ncnc(NN3CCOCC3)n2)cc(OC)c1OC`, with above 4.5 µg/mL. `COc1ccc(Nc2nc3ccccc3n2-c2ncnc(Nc3cc(OC)c(OC)c(OC)c3)n2)c(C)c1` gave an IC50 above 4.5 µg/mL.

In the case of `COc1cc(Nc2ncnc(Nc3ccc(N4CCCCC4)cc3)n2)cc(OC)c1OC`, the IC50 lay within 0.4 to 2.4 µg/mL (≈ 0.916 to 5.5 µM). Then `COc1cc(Nc2ncnc(NC(=O)Cc3ccccc3)n2)cc(OC)c1OC`, with 0.4 to 2.4 µg/mL (≈ 1.01 to 6.07 µM); and `COc1cc(Nc2ncnc(-n3c(C)nc4ccccc43)n2)cc(OC)c1OC`, with 2.4 to 3.5 µg/mL (≈ 6.12 to 8.92 µM); and `COc1ccc(Nc2ncnc(N(C)c3ccc(Cl)c(Cl)c3)n2)cc1OC`, with below 0.4 µg/mL. In the case of `COc1cc(Nc2ncnc(-n3c(NCc4cccc(Br)c4)nc4ccccc43)n2)cc(OC)c1OC`, the IC50 fell in the range of 3.5 to 4.5 µg/mL (≈ 6.22 to 8 µM).

As for `O=c1[nH]c2ccccc2n1-c1ncnc(Nc2ccc(F)c(Cl)c2)n1`, the 50% inhibitory concentration (IC50) was above 4.5 µg/mL. Then `COc1cc(C)c(Nc2ncnc(-c3cccs3)n2)cc1OC`, with above 4.5 µg/mL; and `O=c1[nH]c2ccccc2n1-c1ncnc(Nc2cccc(NS(=O)(=O)c3ccc([N+](=O)[O-])cc3)c2)n1`, with 0.4 to 2.4 µg/mL (≈ 0.793 to 4.76 µM). For the compound `Cc1ccc2c(c1)CCCN2c1ncnc(NCC2CCCO2)n1` (centres undefined), the 50% inhibitory concentration (IC50) is above 4.5 µg/mL.

Regarding `CC1CCc2ccccc2N1c1ncnc(N2c3ccccc3CCC2C)n1` (centres undefined), the IC50 is 2.4 to 3.5 µg/mL (≈ 6.46 to 9.42 µM). With `c1coc(-c2cc(Nc3ncnc(Nc4ccc(-c5csnn5)cc4)n3)n[nH]2)c1` the figure was 0.4 to 2.4 µg/mL (≈ 0.991 to 5.95 µM); with `COc1cc(Nc2ncnc(Nc3ccc(Br)cc3F)n2)cc(OC)c1OC`, below 0.4 µg/mL. With `COc1cc(Nc2ncnc(-n3c(NC(=O)c4ccccc4)nc4ccccc43)n2)cc(OC)c1OC` the figure was above 4.5 µg/mL. Then `COc1cc(C)c(Nc2ncnc(Nc3cc(-c4ccco4)n[nH]3)n2)cc1OC`, with 0.4 to 2.4 µg/mL (≈ 1.02 to 6.1 µM).

In the case of `CN(c1cccc(Cl)c1)c1ncnc(Nc2ccc3c(cnn3C)c2)n1`, the IC50 is below 0.4 µg/mL.

The compound `COc1cc(Nc2ncnc(Cl)n2)cc(OC)c1OC` yielded an IC50 above 4.5 µg/mL. With `COc1ccc(Nc2ncnc(N(C)CCc3ccccn3)n2)cc1OC` the figure was 0.4 to 2.4 µg/mL (≈ 1.09 to 6.55 µM); with `COc1ccc2c(ccn2-c2ncnc(Nc3cc(OC)c(OC)c(OC)c3)n2)c1`, 3.5 to 4.5 µg/mL (≈ 8.59 to 11 µM). Then `COc1cc(Nc2ncnc(Nc3cc(F)ccc3F)n2)cc(OC)c1OC`, with 0.4 to 2.4 µg/mL (≈ 1.03 to 6.16 µM); and `COc1ccc(Nc2ncnc(-n3cccc3)n2)c(OC)c1`, with above 4.5 µg/mL; and `CCCN(CC1CC1)c1ncnc(Nc2cc(OC)c(OC)c(OC)c2)n1`, with 3.5 to 4.5 µg/mL (≈ 9.37 to 12 µM).

With `CN(c1cccc(Cl)c1)c1ncnc(Nc2ccc(F)c(Cl)c2)n1`, the IC50 was below 0.4 µg/mL.

In turn, `COCCOc1ccc(Nc2ncnc(Nc3ccc(C)c(O)c3)n2)cc1OC` registered a concentration for half-maximal inhibition (IC50) below 0.4 µg/mL. With `COc1cc(Nc2ncnc(-c3cccnc3Nc3ccc4c(c3)CCC4)n2)cc(OC)c1OC` the figure was above 4.5 µg/mL. Then `Clc1ccc(-c2csc(Nc3ncnc(-n4cccc4)n3)n2)cc1`, with above 4.5 µg/mL.

Compound `COC(=O)c1ccc(-c2cc(Nc3ncnc(NCCN4CCOCC4)n3)[nH]n2)cc1` displayed an IC50 of 2.4 to 3.5 µg/mL (≈ 5.65 to 8.25 µM). `COC(=O)c1ccc(-c2cc(Nc3ncnc(NCc4ccccc4OC)n3)[nH]n2)cc1` returned an IC50 above 4.5 µg/mL. On to `CC(C)Nc1ncccc1-c1ncnc(Nc2ccc(N3CCOCC3)cc2)n1`, for which the IC50 is 0.4 to 2.4 µg/mL (≈ 1.02 to 6.13 µM). Then `CCOC(=O)c1cccc(Nc2ncnc(Nc3cc(-c4ccc(C(=O)OC)cc4)n[nH]3)n2)c1`, with above 4.5 µg/mL; and `COc1cc(Nc2ncnc(-n3c(NCc4ccccn4)nc4ccccc43)n2)cc(OCCN2CCOCC2)c1OC`, with above 4.5 µg/mL; and `COc1cc(Nc2ncnc(N3CCCc4ccccc43)n2)cc(OC)c1OC`, with below 0.4 µg/mL.

`CN(c1ccc2c(cnn2Cc2ccccc2)c1)c1ncnc(Nc2cccc(Cn3ccnn3)c2)n1` came in with an IC50 below 0.4 µg/mL. Consider `COc1cc(Nc2ncnc(-c3cccnc3NCC(C)c3ccccc3)n2)cc(OC)c1OC` (centres undefined), for which the IC50 is above 4.5 µg/mL. For `O=c1[nH]c2ccccc2n1-c1ncnc(Nc2ccncc2)n1`, the IC50 is above 4.5 µg/mL. `COc1cccc(Nc2nc3ccccc3n2-c2ncnc(Nc3cc(OC)c(OC)c(OC)c3)n2)c1` returned an IC50 above 4.5 µg/mL. Then `COc1cc(Nc2ncnc(-n3c(NC(C)C)nc4ccccc43)n2)cc(OC)c1OC`, with above 4.5 µg/mL; and `COc1cc(Nc2ncnc(N(C)c3cccc(Cl)c3)n2)cc(OC)c1`, with below 0.4 µg/mL. Then `Nc1ncnc(Nc2nc(-c3ccc(Cl)cc3)cs2)n1`, with above 4.5 µg/mL; and `COc1ccc2[nH]cc(CCNc3ncnc(Nc4ccc(OC)c(OC)c4)n3)c2c1`, with above 4.5 µg/mL; and `CC(=O)Nc1ccc(Nc2ncnc(N3CCCc4cc(C)ccc43)n2)cc1`, with below 0.4 µg/mL. `COc1ccc(Nc2ncnc(N(C)C3CCN(C)CC3)n2)cc1OC` displayed an IC50 above 4.5 µg/mL. In the case of `COc1cc(Nc2ncnc(Nc3cc(C(F)(F)F)ccc3F)n2)cc(OC)c1OC`, the IC50 is below 0.4 µg/mL.

For the compound `FC(F)(F)c1cccc(Nc2ncnc(-n3cccc3)n2)c1`, the half-maximal inhibitory concentration (IC50) was above 4.5 µg/mL. `Cc1cccc(Nc2ncnc(Nc3ccc4c(cnn4Cc4ccccc4)c3)n2)c1` displayed an IC50 below 0.4 µg/mL. Compound `COc1ccc2c(c1)nc(NCc1ccc(F)cc1)n2-c1ncnc(Nc2cc(OC)c(OC)c(OC)c2)n1.COc1ccc2nc(NCc3ccc(F)cc3)n(-c3ncnc(Nc4cc(OC)c(OC)c(OC)c4)n3)c2c1` registered a half-inhibitory concentration (IC50) of 2.4 to 3.5 µg/mL. For `COc1cc(Nc2ncnc(-c3cc4ccccc4s3)n2)cc(OC)c1OC`, the half-inhibitory concentration (IC50) is above 4.5 µg/mL.

`COc1ccc(Nc2ncnc(-n3c(=O)[nH]c4ccccc43)n2)cc1OC` returned an IC50 of 2.4 to 3.5 µg/mL (≈ 6.59 to 9.61 µM). Take `CN(c1cccc(Cl)c1)c1ncnc(Nc2ccc3c(cnn3Cc3ccccc3)c2)n1`: the IC50 fell in the range of 0.4 to 2.4 µg/mL (≈ 0.905 to 5.43 µM). With `COc1cc(Nc2ncnc(-n3ccc4cc(Cl)ccc43)n2)cc(OC)c1OC` the figure was above 4.5 µg/mL. As for `CCN(CC)CCNc1ncnc(N(C)c2cccc(Cl)c2)n1`, the IC50 was in the range of 0.4 to 2.4 µg/mL (≈ 1.19 to 7.17 µM).

`CN(c1cccc(Cl)c1)c1ncnc(Nc2ccncc2)n1`: the IC50 is below 0.4 µg/mL. Then `O=[N+]([O-])c1cccc(Nc2ncnc(-c3cccs3)n2)c1`, with above 4.5 µg/mL; and `COc1cc(Nc2ncnc(N3CCOCC3)n2)cc(OC)c1OC`, with above 4.5 µg/mL; and `COC(=O)c1ccc(Nc2ncnc(Nc3cc(-c4ccco4)n[nH]3)n2)cc1`, with above 4.5 µg/mL.

For the compound `c1ccc(Cn2ncc3cc(Nc4ncnc(Nc5ncccn5)n4)ccc32)cc1`, the IC50 fell in the range of 0.4 to 2.4 µg/mL (≈ 1.01 to 6.07 µM). With `COc1cc(Nc2ncnc(-n3c(Nc4ccc5[nH]ccc5c4)nc4ccccc43)n2)cc(OC)c1OC` the figure was 3.5 to 4.5 µg/mL (≈ 6.88 to 8.85 µM); with `COc1cc(Nc2ncnc(-n3c(NCc4ncccc4C)nc4ccccc43)n2)cc(OC)c1OC`, above 4.5 µg/mL.

Source of the values: the Kinase Knowledgebase extract (Sharma et al. 2016).
